Values quoted from earlier work as cited in US20040024003A1, “Flat medicinal preparation for transmucosal administration of oxycodon or a comparable active ingredient in the oral cavity, for use in pain therapy and in addiction therapy” (priority 1999, published 2004).

What was measured:
[1] = in vivo

In the case of `COc1ccc2c3c1O[C@H]1C(=O)CC[C@@]4(O)[C@@H](C2)N(C)CC[C@]314` [oxycodone], the “time taken to enter the blood” value (normal peroral administration) is given as 15 to 30 min, the “bioavailable fraction following peroral administration” value (peroral administration) is given as “two thirds” and the “average duration of action” value [1] is given as 4 to 6 h.
